Assay results as given in patent publication US10227357B2, “Compounds and methods for kinase modulation, and indications therefor” (Plexxikon Inc., priority 2012, dated 2019).

Experiments:
c-kit kinase = molecular target: T1, c-kit kinase (Homo sapiens, UniProt P10721); test: c-Kit biochemical assay, AlphaScreen, 10 μM ATP; settings: c-kit biochemical inhibitory activity; read-out: Biochemical activity (IC50 μM) Kit
T1 construct: The c-kit (or kinase domain thereof) is an active kinase in AlphaScreen; poly-Histidine tag (in-house protein only) (cleaved yes); host or cells: E. coli BL21(DE3)RIL, co-expressed with PTP1B
Outline: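 His-tagged c-Kit expressed in E. coli with co-expressed PTP1B (dephosphorylated), tag removed; 0.1 ng per reaction with biotinylated-peptide substrate in 50 mM HEPES pH 7.2, 5 mM MgCl2, 5 mM MnCl2, 5% DMSO, 10 μM ATP, 1 h at room temperature. Phosphorylation detected by AlphaScreen (streptavidin donor, PY20 acceptor beads); IC50 from 8-point 1:3 dilution series.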

c-kit mutant D816V = molecular target: T2, c-kit mutant D816V (Homo sapiens, UniProt P10721, D816V/DEL694-753); test: c-Kit mutant D816V biochemical assay, AlphaScreen; settings: c-kit D816V biochemical inhibitory activity; read-out: Biochemical activity (IC50 μM) Kit D816V
T2 construct: residues 551-934, kinase insertion domain residues 694-753 deleted; 6x-histidine (N); made in house; host or cells: E. coli Arctic Express (DE3) RIL (Stratagene)
Outline: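 Eight-point, threefold compound series incubated 30 min at room temperature with E. coli-produced D816V kinase, 10 μM ATP, Mg2+/Mn2+ HEPES buffer pH 7.2 and 5% DMSO. After EDTA stop, streptavidin and anti-phosphotyrosine (PY20) AlphaScreen beads gave the read-out, and IC50 was fitted from the concentration–signal curve.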

T2 sequence (P10721 with tags, fused parts or gaps DEL694-753/D816V): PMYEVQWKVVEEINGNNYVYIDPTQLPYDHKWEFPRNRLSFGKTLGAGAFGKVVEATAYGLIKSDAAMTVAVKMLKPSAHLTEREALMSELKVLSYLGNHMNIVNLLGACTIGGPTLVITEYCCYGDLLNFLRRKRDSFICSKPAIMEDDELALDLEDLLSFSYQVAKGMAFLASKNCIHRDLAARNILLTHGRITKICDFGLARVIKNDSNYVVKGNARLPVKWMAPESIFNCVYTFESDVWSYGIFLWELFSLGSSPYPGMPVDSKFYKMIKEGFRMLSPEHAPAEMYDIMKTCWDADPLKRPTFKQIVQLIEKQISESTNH
T1 sequence (P10721 26-976): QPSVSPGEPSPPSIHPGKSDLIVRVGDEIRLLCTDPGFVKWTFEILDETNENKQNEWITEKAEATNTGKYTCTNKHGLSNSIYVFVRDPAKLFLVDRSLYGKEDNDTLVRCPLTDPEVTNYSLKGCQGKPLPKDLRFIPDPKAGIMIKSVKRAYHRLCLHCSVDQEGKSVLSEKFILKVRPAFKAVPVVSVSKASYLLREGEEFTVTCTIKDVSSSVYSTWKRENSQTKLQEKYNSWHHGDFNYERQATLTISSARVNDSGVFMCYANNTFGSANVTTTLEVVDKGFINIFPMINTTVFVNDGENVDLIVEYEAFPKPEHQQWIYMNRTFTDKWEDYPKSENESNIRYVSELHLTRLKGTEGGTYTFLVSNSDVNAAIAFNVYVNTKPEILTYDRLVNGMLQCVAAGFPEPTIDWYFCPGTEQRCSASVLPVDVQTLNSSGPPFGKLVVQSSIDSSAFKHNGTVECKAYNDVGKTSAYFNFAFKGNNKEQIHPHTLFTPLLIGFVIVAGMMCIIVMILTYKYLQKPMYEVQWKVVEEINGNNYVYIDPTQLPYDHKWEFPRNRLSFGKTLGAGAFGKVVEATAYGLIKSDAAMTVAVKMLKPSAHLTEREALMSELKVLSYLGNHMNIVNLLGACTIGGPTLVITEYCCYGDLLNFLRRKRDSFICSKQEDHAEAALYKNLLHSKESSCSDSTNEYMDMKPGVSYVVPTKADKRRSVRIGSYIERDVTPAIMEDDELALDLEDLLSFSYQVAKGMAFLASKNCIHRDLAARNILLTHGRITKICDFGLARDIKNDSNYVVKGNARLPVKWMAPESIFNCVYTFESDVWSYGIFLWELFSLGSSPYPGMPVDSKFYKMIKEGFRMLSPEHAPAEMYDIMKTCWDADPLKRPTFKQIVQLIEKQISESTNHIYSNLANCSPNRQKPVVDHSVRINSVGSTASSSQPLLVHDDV

COc1ccc([C@H](C)NC(=O)N2CCN(c3ncnc4[nH]c(-c5ccc(F)cc5)cc34)C[C@H]2C)cc1 [P-0018, (2R)-4-[6-(4-fluorophenyl)-7H-pyrrolo[2,3-d]pyrimidin-4-yl]-N-[(1S)-1-(4-methoxyphenyl)ethyl]-2-methyl-piperazine-1-carboxamide]
IC50 (c-kit kinase): 1 to 10 µM | IC50 (c-kit mutant D816V): 0.0001 to 1 µM

COc1ccc([C@@H](C)NC(=O)N2CCN(c3ncnc4[nH]c(-c5ccc(Cl)cc5)cc34)C[C@H]2C)cc1 [P-0019, (2R)-4-[6-(4-chlorophenyl)-7H-pyrrolo[2,3-d]pyrimidin-4-yl]-N-[(1R)-1-(4-methoxyphenyl)ethyl]-2-methyl-piperazine-1-carboxamide]
IC50 (c-kit kinase): 10 to 200 µM | IC50 (c-kit mutant D816V): 1 to 10 µM

C[C@H](NC(=O)N1CCN(c2ncnc3[nH]c(-c4ccc(Cl)cc4)cc23)C[C@H]1C)c1ccc(Cl)cc1 [P-0020, (2R)-N-[(1S)-1-(4-chlorophenyl)ethyl]-4-[6-(4-chlorophenyl)-7H-pyrrolo[2,3-d]pyrimidin-4-yl]-2-methyl-piperazine-1-carboxamide]
IC50 (c-kit kinase): 1 to 10 µM | IC50 (c-kit mutant D816V): 1 to 10 µM

C[C@H](NC(=O)N1CCN(c2ncnc3[nH]c(-c4ccc(Cl)cc4)cc23)C[C@H]1C)c1ccc(F)cc1 [P-0023, (2R)-4-[6-(4-chlorophenyl)-7H-pyrrolo[2,3-d]pyrimidin-4-yl]-N-[(1S)-1-(4-fluorophenyl)ethyl]-2-methyl-piperazine-1-carboxamide]
IC50 (c-kit kinase): 10 to 200 µM | IC50 (c-kit mutant D816V): 0.0001 to 1 µM

COc1cccc([C@H](C)NC(=O)N2CCN(c3ncnc4[nH]c(-c5ccc(Cl)cc5)cc34)C[C@H]2C)c1 [P-0024, (2R)-4-[6-(4-chlorophenyl)-7H-pyrrolo[2,3-d]pyrimidin-4-yl]-N-[(1S)-1-(3-methoxyphenyl)ethyl]-2-methyl-piperazine-1-carboxamide]
IC50 (c-kit kinase): 1 to 10 µM | IC50 (c-kit mutant D816V): 0.0001 to 1 µM

C[C@H](NC(=O)N1CCN(c2ncnc3[nH]c(-c4ccc(F)cc4)cc23)CC1)c1cccc(Cl)c1 [P-0027, N-[(1S)-1-(3-chlorophenyl)ethyl]-4-[6-(4-fluorophenyl)-7H-pyrrolo[2,3-d]pyrimidin-4-yl]piperazine-1-carboxamide]
IC50 (c-kit kinase): 10 to 200 µM | IC50 (c-kit mutant D816V): 0.0001 to 1 µM

COc1cccc([C@H](C)NC(=O)N2CCN(c3ncnc4[nH]c(-c5ccc(F)cc5)cc34)C[C@H]2C)c1 [P-0028, (R)-4-[6-(4-Fluoro-phenyl)-7H-pyrrolo[2,3-d]pyrimidin-4-yl]-2-methyl-piperazine-1-carboxylic acid [(S)-1-(3-methoxy-phenyl)-ethyl]-amide]
IC50 (c-kit kinase): 0.0001 to 1 µM | IC50 (c-kit mutant D816V): 0.0001 to 1 µM

C[C@H](NC(=O)N1CCN(c2ncnc3[nH]c(-c4ccc(F)cc4)cc23)C[C@H]1C)c1ccc(Cl)cc1 [P-0029, (2R)-N-[(1S)-1-(4-chlorophenyl)ethyl]-4-[6-(4-fluorophenyl)-7H-pyrrolo[2,3-d]pyrimidin-4-yl]-2-methyl-piperazine-1-carboxamide]
IC50 (c-kit kinase): 10 to 200 µM | IC50 (c-kit mutant D816V): 0.0001 to 1 µM

C[C@H](NC(=O)N1CCN(c2ncnc3[nH]c(-c4ccc(F)cc4)cc23)C[C@H]1C)c1ccc(F)cc1 [P-0030, (2R)-N-[(1S)-1-(4-fluorophenyl)ethyl]-4-[6-(4-fluorophenyl)-7H-pyrrolo[2,3-d]pyrimidin-4-yl]-2-methyl-piperazine-1-carboxamide]
IC50 (c-kit kinase): 10 to 200 µM | IC50 (c-kit mutant D816V): 0.0001 to 1 µM

COc1ccc([C@@H](C)NC(=O)N2CCN(c3ncnc4[nH]c(-c5ccc(F)cc5)cc34)C[C@H]2C)cc1 [P-0031, (2R)-4-[6-(4-fluorophenyl)-7H-pyrrolo[2,3-d]pyrimidin-4-yl]-N-[(1R)-1-(4-methoxyphenyl)ethyl]-2-methyl-piperazine-1-carboxamide]
IC50 (c-kit kinase): 10 to 200 µM | IC50 (c-kit mutant D816V): 1 to 10 µM

COc1cccc([C@@H](C)NC(=O)N2CCN(c3ncnc4[nH]c(-c5ccc(F)cc5)cc34)C[C@H]2C)c1 [P-0032, (2R)-4-[6-(4-fluorophenyl)-7H-pyrrolo[2,3-d]pyrimidin-4-yl]-N-[(1R)-1-(3-methoxyphenyl)ethyl]-2-methyl-piperazine-1-carboxamide]
IC50 (c-kit kinase): 10 to 200 µM | IC50 (c-kit mutant D816V): 1 to 10 µM

C[C@@H]1CN(c2ncnc3[nH]c(-c4ccc(F)cc4)cc23)CCN1C(=O)N[C@H](C)c1ccc(Cl)cc1 [P-0035, (2R)-N-[(1R)-1-(4-chlorophenyl)ethyl]-4-[6-(4-fluorophenyl)-7H-pyrrolo[2,3-d]pyrimidin-4-yl]-2-methyl-piperazine-1-carboxamide]
IC50 (c-kit kinase): 10 to 200 µM | IC50 (c-kit mutant D816V): 1 to 10 µM

C[C@H]1CN(c2ncnc3[nH]c(-c4ccncc4)cc23)CCN1C(=O)NCc1ccc(Cl)cc1 [P-0044, (2S)-N-[(4-chlorophenyl)methyl]-2-methyl-4-[6-(4-pyridyl)-7H-pyrrolo[2,3-d]pyrimidin-4-yl]piperazine-1-carboxamide]
IC50 (c-kit kinase): 0.0001 to 1 µM | IC50 (c-kit mutant D816V): 0.0001 to 1 µM

C[C@H]1CN(c2ncnc3[nH]c(-c4ccncc4)cc23)CCN1C(=O)Nc1ccc(Cl)cc1 [P-0045, (2S)-N-(4-chlorophenyl)-2-methyl-4-[6-(4-pyridyl)-7H-pyrrolo[2,3-d]pyrimidin-4-yl]piperazine-1-carboxamide]
IC50 (c-kit kinase): 1 to 10 µM | IC50 (c-kit mutant D816V): 1 to 10 µM

COc1cccc([C@H](C)NC(=O)N2CCN(c3ncnc4[nH]c(C#CC5CC5)cc34)CC2)c1 [P-0047, 4-[6-(2-cyclopropylethynyl)-7H-pyrrolo[2,3-d]pyrimidin-4-yl]-N-[(1S)-1-(3-methoxyphenyl)ethyl]piperazine-1-carboxamide]
IC50 (c-kit kinase): 1 to 10 µM | IC50 (c-kit mutant D816V): 0.0001 to 1 µM

CN(C)c1ccc(NC(=O)N2CCN(c3ncnc4[nH]c(C#CC5CC5)cc34)CC2)cc1 [P-0052, 4-[6-(2-cyclopropylethynyl)-7H-pyrrolo[2,3-d]pyrimidin-4-yl]-N-(4-dimethylaminophenyl)piperazine-1-carboxamide]
IC50 (c-kit kinase): 1 to 10 µM | IC50 (c-kit mutant D816V): 10 to 200 µM

O=C(Nc1ccc(OC(F)(F)F)cc1)N1CCN(c2ncnc3[nH]c(C#CC4CC4)cc23)CC1 [P-0053, 4-[6-(2-cyclopropylethynyl)-7H-pyrrolo[2,3-d]pyrimidin-4-yl]-N-[4-(trifluoromethoxy)phenyl]piperazine-1-carboxamide]
IC50 (c-kit kinase): 1 to 10 µM | IC50 (c-kit mutant D816V): 10 to 200 µM

C[C@@H]1CN(c2ncnc3[nH]c(-c4ccncc4)cc23)CCN1C(=O)NCc1cccc(Cl)c1 [P-0056, (2R)-N-[(3-chlorophenyl)methyl]-2-methyl-4-[6-(4-pyridyl)-7H-pyrrolo[2,3-d]pyrimidin-4-yl]piperazine-1-carboxamide]
IC50 (c-kit kinase): 1 to 10 µM | IC50 (c-kit mutant D816V): 0.0001 to 1 µM

COc1ccc(NC(=O)N2CCN(c3ncnc4[nH]c(-c5ccncc5)cc34)C[C@H]2C)cn1 [P-0057, (2R)-N-(6-methoxy-3-pyridyl)-2-methyl-4-[6-(4-pyridyl)-7H-pyrrolo[2,3-d]pyrimidin-4-yl]piperazine-1-carboxamide]
IC50 (c-kit kinase): 1 to 10 µM | IC50 (c-kit mutant D816V): 0.0001 to 1 µM

C[C@H](NC(=O)N1CCN(c2ncnc3[nH]c(-c4ccncc4)cc23)C[C@H]1C)c1ccc(F)cc1 [P-0058, (2R)-N-[(1S)-1-(4-fluorophenyl)ethyl]-2-methyl-4-[6-(4-pyridyl)-7H-pyrrolo[2,3-d]pyrimidin-4-yl]piperazine-1-carboxamide]
IC50 (c-kit kinase): 1 to 10 µM | IC50 (c-kit mutant D816V): 0.0001 to 1 µM

C[C@H](NC(=O)N1CCN(c2ncnc3[nH]c(-c4ccncc4)cc23)C[C@H]1C)c1ccc(Cl)cc1 [P-0059, (2R)-N-[(1S)-1-(4-chlorophenyl)ethyl]-2-methyl-4-[6-(4-pyridyl)-7H-pyrrolo[2,3-d]pyrimidin-4-yl]piperazine-1-carboxamide]
IC50 (c-kit kinase): 0.0001 to 1 µM | IC50 (c-kit mutant D816V): 0.0001 to 1 µM

COc1cccc([C@H](C)NC(=O)N2CCN(c3ncnc4[nH]c(-c5ccncc5)cc34)C[C@H]2C)c1 [P-0060, (2R)-N-[(1S)-1-(3-methoxyphenyl)ethyl]-2-methyl-4-[6-(4-pyridyl)-7H-pyrrolo[2,3-d]pyrimidin-4-yl]piperazine-1-carboxamide]
IC50 (c-kit kinase): 0.0001 to 1 µM | IC50 (c-kit mutant D816V): 0.0001 to 1 µM

C[C@@H]1CN(c2ncnc3[nH]c(-c4ccncc4)cc23)CCN1C(=O)NCc1ccc(F)cc1 [P-0061, (2R)-N-[(4-fluorophenyl)methyl]-2-methyl-4-[6-(4-pyridyl)-7H-pyrrolo[2,3-d]pyrimidin-4-yl]piperazine-1-carboxamide]
IC50 (c-kit kinase): 1 to 10 µM | IC50 (c-kit mutant D816V): 0.0001 to 1 µM

C[C@@H]1CN(c2ncnc3[nH]c(-c4ccncc4)cc23)CCN1C(=O)Nc1ccc(F)c(Cl)c1 [P-0062, (2R)-N-(3-chloro-4-fluoro-phenyl)-2-methyl-4-[6-(4-pyridyl)-7H-pyrrolo[2,3-d]pyrimidin-4-yl]piperazine-1-carboxamide]
IC50 (c-kit kinase): 1 to 10 µM | IC50 (c-kit mutant D816V): 0.0001 to 1 µM

C[C@@H]1CN(c2ncnc3[nH]c(-c4ccncc4)cc23)CCN1C(=O)Nc1ccc(OC(F)(F)F)cc1 [P-0063, (2R)-2-methyl-4-[6-(4-pyridyl)-7H-pyrrolo[2,3-d]pyrimidin-4-yl]-N-[4-(trifluoromethoxy)phenyl]piperazine-1-carboxamide]
IC50 (c-kit kinase): 0.0001 to 1 µM | IC50 (c-kit mutant D816V): 0.0001 to 1 µM

C[C@@H]1CN(c2ncnc3[nH]c(-c4ccncc4)cc23)CCN1C(=O)NCc1ccc(Cl)cc1 [P-0064, (2R)-N-[(4-chlorophenyl)methyl]-2-methyl-4-[6-(4-pyridyl)-7H-pyrrolo[2,3-d]pyrimidin-4-yl]piperazine-1-carboxamide]
IC50 (c-kit kinase): 0.0001 to 1 µM | IC50 (c-kit mutant D816V): 0.0001 to 1 µM
